Assay [1] has as its system A2780. Description: Cytotoxicity against human A2780 cells up to 10 uM after 48 hrs by MTT assay. The assay is classed as functional, cell-based. (In general: Tetrazolium dyes change colour on reduction, which living cells bring about.)
For assay [2], the system named is HEY. Put plainly: Cytotoxicity against human HEY cells up to 10 uM after 48 hrs by MTT assay. The assay is classed as functional, cell-based.
In assay [3] the test system is HEY. Description: Cytotoxicity against human HEY cells after 48 hrs by MTT assay. The class given is functional, cell-based.
For assay [4], the system named is A2780. Put plainly: cells. To be noted: Homo sapiens, A2780, 48 h.
Description: (§1) Cytotoxicity against human A2780 cells after 48 hrs by MTT assay
Assay [5] concerns A2780. The settings on record: Homo sapiens.
Description: as §1
Assay [6] relates to HEY. Put plainly: Induction of autophagy in human HEY cells assessed as increase in LC3-2 expression up to 10 uM after 24 hrs by Western blot analysis. The assay is classed as functional, cell-based.
For assay [7], the target named is T1, c-Jun N-terminal kinase, JNK (Homo sapiens) (UniProt P45983+P53779+P45984). Put plainly: Activation of JNK in human A2780 cells assessed as increase in phosphorylated c-jun expression up to 10 uM after 24 hrs in presence of JNK/c-Jun pathway inhibitor SP600125 by Western blot analysis. The assay is classed as cell-based. Background: In western blotting, separated proteins are transferred to a membrane and probed.

Assay [8] has as its target T1, c-Jun N-terminal kinase, JNK (Homo sapiens). Put plainly: Activation of JNK in human A2780 cells assessed as increase in c-jun expression up to 10 uM after 24 hrs by Western blot analysis. The class given is cell-based.
The test system of assay [9] is A2780. Put plainly: Induction of autophagy in human A2780 cells assessed as increase in LC3-2 expression up to 10 uM after 24 hrs by Western blot analysis. The assay is classed as functional, cell-based.
Assay [10] addresses T1, c-Jun N-terminal kinase, JNK (Homo sapiens). Description: Activation of JNK phosphorylation in human A2780 cells up to 10 uM after 24 hrs by Western blot analysis. The assay is classed as cell-based.
Assay [11] concerns A2780. Description: Induction of autophagy in human A2780 cells assessed as increase in LC3-2 expression in presence of JNK/c-Jun pathway inhibitor SP600125 by Western blot analysis. The class given is functional, cell-based.
For assay [12], the system named is A2780. Description: Induction of autophagy in human A2780 cells assessed as increase in LC3-2 expression by Western blot analysis. The assay is classed as functional, cell-based.
Assay [13] concerns the target T1, c-Jun N-terminal kinase, JNK (Homo sapiens). Put plainly: Activation of JNK phosphorylation in human A2780 cells up to 10 uM after 24 hrs in presence of JNK/c-Jun pathway inhibitor SP600125 by Western blot analysis. The class given is cell-based.
Assay [14] has the same target. Description: Activation of JNK in human A2780 cells assessed as increase in phosphorylated c-jun expression up to 10 uM after 24 hrs by Western blot analysis. The assay is classed as cell-based.
For assay [15], the system named is HEY. Put plainly: Induction of autophagy in human HEY cells assessed as increase in LC3-2 expression by Western blot analysis. The assay is classed as functional, cell-based.
Assay [16] deals with A2780. Put plainly: Induction of autophagy in human A2780 cells expressing mRFP-GFP-LC3 plasmid assessed as increase in LC3 punctum formation at 10 uM after 24 hrs by confocal microscopic analysis. The class given is functional, cell-based.

Experimental findings from ChEMBL document CHEMBL4190272, “Norditerpenoids and Dinorditerpenoids from the Seeds of Podocarpus nagi as Cytotoxic Agents and Autophagy Inducers” (J Nat Prod, 2017) are described below.

Each structure is given as a SMILES string. pIC50: −log10 of the molar value. Calls of active or inactive are those of the source. No cut-off for these calls is given here.

For `CCc1oc(=O)cc2c1C[C@H]1OC(=O)[C@@]3(C)[C@@H](O)[C@@H](O)[C@H](O)[C@@]2(C)[C@@H]13`, the result in assay [1] and in assay [2] was inactive.

For `CCc1oc(=O)cc2c1C[C@H]1OC(=O)[C@@]3(C)CC[C@@H](O)[C@@]2(C)[C@@H]13`, the pIC50 in assay [3] is 5.19; in [4], 5.42.

Consider `CCc1oc(=O)cc2c1C[C@H]1OC(=O)[C@@]3(C)[C@@H](O)C[C@@H](O)[C@@]2(C)[C@@H]13`, for which the outcome in [1] and in assay [2] was inactive.

On to `CC(C)c1oc(=O)cc2c1[C@@H](O)[C@H]1OC(=O)[C@@]3(C)C[C@@H](O)C[C@@]2(C)[C@@H]13`, for which the outcome in assay [5] and in assay [3] was Active.

Take `CC(C)c1oc(=O)cc2c1[C@@H](O)[C@H]1OC(=O)[C@@]3(C)CC[C@@H](O)[C@@]2(C)[C@@H]13`: the outcome in [5] and in [3] was Active.

Turning to `CC(C)[C@H]1OC(=O)C=C2[C@@]13O[C@@H]3[C@H]1OC(=O)[C@@]3(C)CCC[C@@]2(C)[C@@H]13`, the outcome in [5] and in assay [3] was Active.

Turning to `CC(C)c1oc(=O)cc2c1[C@@H](O)[C@H]1OC(=O)[C@@]3(C)CC(=O)[C@@H](O)[C@@]2(C)[C@@H]13`, the result in assay [1] and in [2] was inactive.

As for `CC(O)c1oc(=O)cc2c1C[C@H]1OC(=O)[C@@]3(C)[C@H](O)[C@H]4O[C@H]4[C@@]2(C)[C@@H]13` (some centres not stated), the result in [1] and in assay [2] was inactive.

Regarding `CC(=O)O[C@H]1C(=O)[C@@]2(C)[C@H]([C@H](OC(=O)c3ccccc3)[C@]3(O)C[C@H](OC(=O)[C@H](O)[C@@H](NC(=O)c4ccccc4)c4ccccc4)C(C)=C1C3(C)C)[C@]1(OC(C)=O)CO[C@@H]1C[C@@H]2O` [PACLITAXEL], the pIC50 was 6.98 in assay [3] and 6.78 in [4].

For the compound `CCc1oc(=O)cc2c1[C@@H](O)[C@H]1OC(=O)[C@@]3(C)[C@@H](O)[C@H]4O[C@H]4[C@@]2(C)[C@@H]13`, the outcome in assay [1] and in assay [2] was inactive.

On to `CC(O)c1oc(=O)cc2c1C[C@H]1OC(=O)[C@@]3(C)CC[C@@H](O)[C@@]2(C)[C@@H]13` (some centres not stated), for which the result in [1] and in assay [2] was inactive.

As to `CC(C)c1oc(=O)cc2c1[C@@H](O)[C@H]1OC(=O)[C@@]3(C)C[C@@H](O)[C@@H](O)[C@@]2(C)[C@@H]13`, the outcome in assay [5] and in assay [3] was Active.

In the case of `CC(C)c1oc(=O)cc2c1[C@@H](O)[C@H]1OC(=O)[C@@]3(C)[C@@H](O)[C@H]4O[C@H]4[C@@]2(C)[C@@H]13`, the result in [5] and in [3] was Active.

Turning to `CCc1oc(=O)cc2c1C[C@H]1OC(=O)[C@@]3(C)C[C@@H](O)[C@@H](O)[C@@]2(C)[C@@H]13`, the outcome in [6], in assay [8], in assay [9], in assay [10], in [12] and in assay [14] was Active. The outcome in assay [15] and in [16] was Active. Besides, the outcome in assay [7], in [11] and in assay [13] was inactive. For the same compound, the pIC50 in [3] and in assay [4] was more than 5.60 each time.

`CCc1oc(=O)cc2c1C[C@H]1OC(=O)[C@@]3(C)[C@@H](O)[C@H]4O[C@H]4[C@@]2(C)[C@@H]13`: the result in assay [5] and in assay [3] was Active.

As for `CCc1oc(=O)cc2c1C[C@H]1OC(=O)[C@@]3(C)[C@H](O)[C@H]4O[C@H]4[C@@]2(C)[C@@H]13`, the result in assay [5], in assay [3], in assay [12] and in [15] was Active.

Turning to `CC(O)c1oc(=O)cc2c1C[C@H]1OC(=O)[C@@]3(C)[C@@H](O)[C@@H](O)[C@H](Cl)[C@@]2(C)[C@@H]13` (some centres not stated), the outcome in [1] and in [2] was inactive.

A word on the pIC50: it is the IC50 on a negative log10 scale, so that one unit is a factor of ten.
